Assays:
[1] = molecular target: T1, GST tagged LXRbeta LBD (ligand binding domain) (Homo sapiens, UniProt P55055); assay: LanthaScreen TR-FRET Liver X Receptor Coactivator Assay, LXR beta-LBD (co-activator recruitment; IP and % Emax relative to T0901317); type: biochemical; conditions: for EC50: Inflection Point of co-activator recruitment, LXR beta-LBD, TR-FRET; for Emax: efficacy at max dose in relation to reference T0901317, LXR beta-LBD, read-out: LXR beta actiivty at max dose (%)
T1 construct: purchased Invitrogen pv4658.pps
T1 sequence (P55055 222-460 limits assumed): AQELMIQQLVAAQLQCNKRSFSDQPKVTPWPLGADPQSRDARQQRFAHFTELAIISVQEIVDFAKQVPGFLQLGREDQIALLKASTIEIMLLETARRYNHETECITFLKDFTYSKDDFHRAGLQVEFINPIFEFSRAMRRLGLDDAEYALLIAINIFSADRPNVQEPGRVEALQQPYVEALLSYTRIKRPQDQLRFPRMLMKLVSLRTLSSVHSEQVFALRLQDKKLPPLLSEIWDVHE
How it was run: (§1)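 Readout is time-resolved FRET between a terbium anti-GST antibody bound to the tagged LBD and a fluorescein-labelled coactivator peptide recruited on ligand binding. Samples are incubated at room temperature before reading, and efficacy is expressed against T0901317.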

[2] = molecular target: T2, GST tagged LXRalpha LBD (ligand binding domain) (Homo sapiens, UniProt Q13133); assay: LanthaScreen TR-FRET Liver X Receptor Coactivator Assay, LXR alpha-LBD (co-activator recruitment; IP and % Emax relative to T0901317); type: biochemical; conditions: for LXR alpha IP (nM) / EC50: Inflection Point of co-activator recruitment, LXR alpha-LBD, TR-FRET; for Emax: efficacy at max dose in relation to reference T0901317, LXR alpha-LBD, read-out: LXR alpha actiivty at max dose (%)
T2 construct: purchased Invitrogen pv4655
T2 sequence (Q13133 209-447 limits assumed): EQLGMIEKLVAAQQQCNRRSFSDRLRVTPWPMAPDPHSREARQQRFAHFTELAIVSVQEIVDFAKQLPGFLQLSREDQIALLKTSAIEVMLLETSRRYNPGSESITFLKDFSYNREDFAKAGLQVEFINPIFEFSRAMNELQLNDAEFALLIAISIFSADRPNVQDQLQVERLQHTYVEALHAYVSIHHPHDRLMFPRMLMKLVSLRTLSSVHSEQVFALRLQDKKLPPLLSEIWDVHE
How it was run: as §1

Row | EC50 [1] | Emax [1] | LXR alpha IP (nM) [2] | Emax [2] | EC50 [2] | Compound
1 | 28 nM | 63% |  | 23% | 705 nM | COc1cccc([C@@](O)(C(=O)N(C)CCCC2CCN(c3ccc(C(=O)N(C)CCO)c(Cl)n3)CC2)C(F)(F)F)c1 [Example 2-5, (R)-2-chloro-N-(2-hydroxyethyl)-N-methyl-6-(4-(3-(3,3,3-trifluoro-2-hydroxy-2-(3-methoxyphenyl)-N-methylpropanamido)propyl)piperidin-1-yl)nicotinamide]
2 | 35 nM | 42% | No IP | 5% |  | COc1cccc([C@@](O)(C(=O)N(C)CC2CC3(CCN(c4ccc(C(=O)N(C)C)c(Cl)n4)CC3)C2)C(F)(F)F)c1 [Example 14-1, 2-chloro-N,N-dimethyl-6-(2-(((R)-3,3,3-trifluoro-2-hydroxy-2-(3-methoxyphenyl)-N-methylpropanamido)methyl)-7-azaspiro[3.5]nonan-7-yl)nicotinamide]
3 | 11 nM | 62% |  | 40% | 95 nM | COc1cccc([C@@](O)(C(=O)N(C)CCCC2CCN(c3ccc(C(=O)N(C)Cc4noc(C5CC5)n4)c(Cl)n3)CC2)C(F)(F)F)c1 [Example 2-12, (R)-2-chloro-N-((5-cyclopropyl-1,2,4-oxadiazol-3-yl)methyl)-N-methyl-6-(4-(3-(3,3,3-trifluoro-2-hydroxy-2-(3-methoxyphenyl)-N-methylpropanamido)propyl)piperidin-1-yl)nicotinamide]
4 | 333 nM | 43% | No IP | 2% |  | CN(C)C(=O)c1ccc(N2CCC(CCCN(C)C(=O)[C@@](O)(c3cccc(C(F)(F)F)c3)C(F)(F)F)CC2)nc1Cl [Example 1-48, (S)-2-chloro-N,N-dimethyl-6-(4-(3-(3,3,3-trifluoro-2-hydroxy-N-methyl-2-(3-(trifluoromethyl)phenyl)pro-panamido)propyl)piperidin-1-yl)nicotinamide]
5 | 1010 nM | 40% |  | 40% | 13200 nM | CN(C)C(=O)c1ccc(N2CCC(CCCNC(=O)[C@](O)(c3cccc(OC(F)(F)F)c3)C(F)(F)F)CC2)nc1Cl [Example 5-12, (R)-2-chloro-N,N-dimethyl-6-(4-(3-(3,3,3-trifluoro-2-hydroxy-2-(3-(trifluoromethoxy)phenyl)propanamido)propyl)piperidin-1-yl)nicotinamide]
6 | 23 nM | 50% |  | 15% | 623 nM | CN(C)C(=O)c1ccc(N2CCC([C@H]3C[C@H]3CN(C)C(=O)[C@](O)(c3cccc(OC(F)(F)F)c3)C(F)(F)F)CC2)nc1Cl [Example 15-4, 2-chloro-N,N-dimethyl-6-(4-((1R,2R)-2-(((R)-3,3,3-trifluoro-2-hydroxy-N-methyl-2-(3-(trifluoromethoxy)phenyl)propanamido)methyl)cyclopropyl)piperidin-1-yl)nicotinamide]
7 | 686 nM | 51% | No IP | 18% |  | COc1cccc([C@@](O)(C(=O)N(C)CCCC2CCN(c3ccc(C(=O)NC(C)C)c(Cl)n3)CC2)C(F)(F)F)c1 [Example 2-1, (R)-2-chloro-N-isopropyl-6-(4-(3-(3,3,3-trifluoro-2-hydroxy-2-(3-methoxyphenyl)-N-methylpropanamido)propyl)piperidin-1-yl)nicotinamide]
8 | 101 nM | 54% |  | 40% | 1790 nM | COc1cccc([C@@](O)(C(=O)N(C)CC[C@H]2CC23CCN(c2ccc(C(=O)NC4CC4)c(Cl)n2)CC3)C(F)(F)F)c1 [Example 7-16, 2-chloro-N-cyclopropyl-6-((R)-1-(2-((R)-3,3,3-trifluoro-2-hydroxy-2-(3-methoxyphenyl)-N-methylpropanamido)ethyl)-6-azaspiro[2.5]octan-6-yl)nicotinamide]
9 | 98 nM | 116% |  | 29% | 2440 nM | COc1cccc([C@@](O)(C(=O)N[C@H](C)CCC2CCN(c3ccc(C(=O)N(C)C)c(Cl)n3)CC2)C(F)(F)F)c1 [Example 6-2, 2-chloro-N,N-dimethyl-6-(4-((R)-3-((R)-3,3,3-trifluoro-2-hydroxy-2-(3-methoxyphenyl)propanamido)butyl)piperidin-1-yl)nicotinamide]
10 | 247 nM | 59% | No IP | 8% |  | COc1cccc([C@@](O)(C(=O)N(C)CCCC2CCN(c3ccc(C(=O)N(C)C)c(Cl)c3)CC2)C(F)(F)F)c1 [Example 4-1, (R)-2-chloro-N,N-dimethyl-4-(4-(3-(3,3,3-trifluoro-2-hydroxy-2-(3-methoxyphenyl)-N-methylpropanamido)propyl)piperidin-1-yl)benzamide]
11 | 18 nM | 76% | No IP | 14% |  | CN(C)C(=O)c1ccc(N2CCC([C@H]3C[C@H](N(C)C(=O)[C@](O)(c4cccc(C5CC5)c4)C(F)(F)F)C3)CC2)nc1Cl [Example 17-1, 2-chloro-6-(4-((1R,3r)-3-((R)-2-(3-cyclopropylphenyl)-3,3,3-trifluoro-2-hydroxy-N-methylpropanamido)cyclobutyl)piperidin-1-yl)-N,N-dimethylnicotinamide]

More lines, now with the values behind:

Row | Compound | EC50 [1] | Emax [1] | LXR alpha IP (nM) [2] | Emax [2] | EC50 [2]
12 | COc1cccc([C@@](O)(C(=O)N(C)CC[C@@H]2CC23CCN(c2ccc(C(=O)N(C)C(C)C)c(Cl)c2)CC3)C(F)(F)F)c1 [Example 7-30, 2-chloro-N-isopropyl-N-methyl-4-((S)-1-(2-((R)-3,3,3-trifluoro-2-hydroxy-2-(3-methoxy-phenyl)-N-methyl-propanamido)ethyl)-6-azaspiro[2.5]octan-6-yl)benzamide] | 557 nM | 27% | No IP | 0% | 
13 | CN(C)C(=O)c1ccc(N2CCC(CCCN(C)C(=O)[C@@]3(c4ccccc4F)CCCO3)CC2)nc1Cl [Example 1-5, (S)-2-chloro-6-(4-(3-(2-(2-fluorophenyl)-N-methyl-tetrahydrofuran-2-carboxamido)propyl)piperidin-1-yl)-N,N-dimethylnicotinamide] | 55 nM | 82% | No IP | 6% | 
14 | COc1cccc([C@@](O)(C(=O)N(C)CCCC2CCN(c3ccc(C(=O)N4CC[C@H](CO)C4)c(Cl)n3)CC2)C(F)(F)F)c1 [Example 2-8, (R)-N-(3-(1-(6-chloro-5-((S)-3-(hydroxymethyl)pyrrolidine-1-carbonyl)pyridin-2-yl)piperidin-4-yl)propyl)-3,3,3-trifluoro-2-hydroxy-2-(3-methoxyphenyl)-N-methylpropanamide] | 11 nM | 47% |  | 40% | 690 nM
15 | CN(C)C(=O)c1ccc(N2CCC(C)(CCCN(C)C(=O)[C@]3(c4ccccc4)CCCO3)CC2)nc1Cl [Example 9-3, (R)-2-chloro-N,N-dimethyl-6-(4-methyl-4-(3-(N-methyl-2-phenyltetrahydrofuran-2-carboxamido)propyl)piperidin-1-yl)nicotinamide] | 14 nM | 94% |  | 31% | 198 nM
16 | CN(C)C(=O)c1ccc(N2CCC(CCCNC(=O)C(C)(C)c3ccccc3)CC2)cc1Cl [Example 5-4, 2-chloro-N,N-dimethyl-4-(4-(3-(2-methyl-2-phenylpropanamido)propyl)piperidin-1-yl)benzamide] | 561 nM | 72% | No IP | 16% | 
17 | COc1cccc([C@@](O)(C(=O)N(C)CCCC2CCN(c3ccc(C(=O)N4CC(NC(=O)OC(C)(C)C)C4)c(Cl)n3)CC2)C(F)(F)F)c1 [Example 2-9, (R)-tert-butyl 1-(2-chloro-6-(4-(3-(3,3,3-trifluoro-2-hydroxy-2-(3-methoxyphenyl)-N-methylpropanamido)propyl)piperidin-1-yl)nicotinoyl) azetidin-3-ylcarbamate] | 9 nM | 65% |  | 45% | 164 nM
18 | COc1cccc([C@@](O)(C(=O)N(C)CC[C@H]2CC23CCN(c2ccc(C(=O)NC(C)C)c(Cl)c2)CC3)C(F)(F)F)c1 [Example 7-10, 2-chloro-N-isopropyl-4-((R)-1-(2-((R)-3,3,3-trifluoro-2-hydroxy-2-(3-methoxyphenyl)-N-methylpropanamido)ethyl)-6-azaspiro[2.5]octan-6-yl)benzamide] | 100 nM | 58% |  | 35% | 1060 nM
19 | CN(C)C(=O)c1ccc(N2CCC(CCCNC(=O)[C@@]3(c4ccccc4)CCCO3)CC2)nc1Cl [Example 5-18, (S)-2-chloro-N,N-dimethyl-6-(4-(3-(2-phenyltetrahydrofuran-2-carboxamido)propyl)piperidin-1-yl)nicotinamide] | 990 nM | 66% | No IP | 7% | 
